Experimental data from patent US20230357210A1, “NITROGEN-CONTAINING CONDENSED HETEROCYCLIC COMPOUND HAVING AN OXIME GROUP, AGRICULTURAL OR HORTICULTURAL HERBICIDE COMPRISING THE COMPOUND, AND METHOD FOR USING THE COMPOUND OR THE HERBICIDE” (NIHON NOHYAKU CO., LTD., priority 2020, published 2023).

Row | SMILES | melting point [°C]
1 | CCON=C(N)c1ccc(S(C)(=O)=O)c(-c2nc3cc(C(F)(F)F)ccc3n2C)n1 [1-205, N′-ethoxy-5-methylsulfonyl-6-[1-methyl-5-(trifluoromethyl)benzimidazol-2-yl]pyridine-2-carboxamidine] | 149 to 150
2 | CCON=C(N)c1ccc(S(=O)(=O)NC)c(-c2nc3cc(C(F)(F)F)ccc3n2C)n1 [1-210, N′-ethoxy-5-methylsulfamoyl-6-[1-methyl-5-(trifluoromethyl)benzimidazol-2-yl)pyridine-2-carboxamidine] | 173 to 174
3 | CCON=C(NC)c1ccc(S(C)(=O)=O)c(-c2nc3cc(C(F)(F)F)ccc3n2C)n1 [1-216, N′-ethoxy-N-methyl-5-methylsulfonyl-6-[1-methyl-5-(trifluor omethyl)benzimidazol-2-yl]pyridine-2-carboxamidine] | 154 to 155
4 | CCON=C(c1ccc(S(C)(=O)=O)c(-c2nc3cc(C(F)(F)F)ccc3n2C)n1)N(C)C [1-220, N′-ethoxy-N,N-dimethyl-5-methylsulfonyl-6-[1-methyl-5-(trifluoromethyl)benzimidazol-2-yl)pyridine-2-carboxamidine] | 150 to 151
5 | CCO/N=C/c1ccc(C(=O)O)c(-c2nc3cc(SC(F)(F)F)ccc3n2C)n1 [2-81, 6-[(E)-ethoxyiminomethyl]-2-[1-methyl-5-(trifluoromethylthio)benzimidazol-2-yl]pyridine-3-carboxylic acid] | 195 to 196
6 | CCO/N=C/c1ccc(C(=O)N(C)C)c(-c2nc3cc(SC(F)(F)F)ccc3n2C)n1 [2-95, 6-[(E)-ethoxyiminomethyl]-N,N-dimethyl-2-[1-methyl-5-(trifluoromethylthio)benzimidazol-2-yl]pyridine-3-carboxamide] | 118 to 119
7 | CCO/N=C(\C)c1ccc(C(=O)OC)c(-c2nc3cc(SC(F)(F)F)ccc3n2C)n1 [2-105, 6-[(E)-N-ethoxy-C-methyl-carbonimidoyl]-2-[1-methyl-5-(trifluoromethylthio)benzimidazol-2-yl]pyridine-3-carboxylic acid methyl ester] | 121 to 122
8 | CCON=C(N)c1ccc(C(=O)OC)c(-c2nc3cc(C(F)(F)F)ccc3n2C)n1 [2-123, N′-ethoxy-5-methoxycarbonyl-6-[1-methyl-5-(trifluoromethyl)benzimidazol-2-yl)pyridine-2-carboxamidine] | 46 to 47
9 | CCON=C(N)c1cc(C)c(Cl)c(-c2nc3cc(C(F)(F)F)ccc3n2C)n1 [3-65, 5-chloro-N′-ethoxy-4-methyl-6-[1-methyl-5-(trifluoromethyl)benzimidazol-2-yl]pyridine-2-carboxamidine] | 144 to 145
10 | CCON=C(N)c1cc(C)c(S(C)(=O)=O)c(-c2nc3cc(C(F)(F)F)ccc3n2C)n1 [3-70, N′-ethoxy-4-methyl-5-methylsulfonyl-6-[1-methyl-5-(trifluor omethyl)benzimidazol-2-yl]pyridine-2-carboxamidine] | 246 to 247
11 | CCO/N=C(\N)c1cnc(S(=O)(=O)NC)c(-c2nc3cc(C(F)(F)F)ccc3n2C)n1 [7-46, (Z)-N′-ethoxy-6-(1-methyl-5-(trifluoromethyl)-1H-benzo[d]imidazol-2-yl)-5-(N-methylsulfamoyl)pyrazine-2-carboximidamide] | 244 to 246
12 | CCO/N=C(\N)c1ncc(S(=O)(=O)NC)c(-c2nc3ccccc3n2C)n1 [8-6, (Z)-N′-ethoxy-4-(1-methyl-1H-benzo[d]imidazol-2-yl)-5-(N-methylsulfamoyl)pyrimidine-2-carboximidamide] | 222 to 223
